In patent US20250222063A1, “TOPICAL FORMULATION FOR USE IN THE TREATMENT OR PREVENTION OF DRY ITCHY SKIN” (MC2 THERAPEUTICS LTD, priority 2022, published 2025):
Residues, ends and D or L forms follow the SMILES beside them.

What was measured:
[1] = ACD/Labs calculated Log P; conditions: summary in words, judged from Log P
From the text: It is well known in the art that compounds for a given molecular weight with more extreme Log P values are less likely to permeate the skin barrier well. Whether that be extremely hydrophilic (Log P<−2) or extremely hydrophobic (Log P>2) (16).). All of the dipeptides have a molecular weight below 400 therefore a good approximation of their relative permeation potential is their Log P. According to the ACD/Labs calculated Log P values Ala-Gln is the one of the most hydrophilc in nature with a Log P of −4.4.

[2] = tested on: bovine serum albumin (BSA); assay: In vitro protein carbamylation assay (14C-potassium cyanate, scintillation counting); type: biochemical; conditions: for Degree of carbamylation (% relative to HBSS control): 10 mM nucleophile, 75 μM BSA, 25 μM 14C-Potassium Cyanate, 37° C., 72 hours, n=3; for scavenger potential: summary in words
Procedure: The tests were performed as described below. 200 μL of a 0.5% BSA solution, 200 μL of test solution and 100 μL of a 5 μCi/mL 14 C-Potassium Cyanate solution was mixed in an Eppendorf tube (corresponding to a final concentration of 75 μM BSA, 25 μM 14 C-Potassium Cyanate, and 10 mM nucleophile). Samples run in triplicates (n=3). The Eppendorf tubes were incubated at 37° C. for 72 hours.
After incubation a volume of 100 μL of each sample was transferred to a new Eppendorf tube containing 100 μL of a 10% trichloroacetic acid (TCA) and kept at 4° C. overnight (for precipitation of BSA). Subsequently, the precipitated BSA was separated from the buffer by centrifugation (10000 rpm, 30 seconds). The supernatant was removed and the BSA pellet 10 was resuspended in 200 μL of a 10% solution of cold TCA (4° C.). The pellet was recovered by centrifugation (10000 rpm, 30 seconds) and supernatant was discarded. The BSA pellet was resuspended in 100 μL purified water (MilliQ) and transferred to a scintillation vial. The Eppendorf tube (previously containing the BSA pellet) was rinsed with an additional 100 μL purified water which al was transferred to the relevant scintillation vial.

[3] = Solubility (stated in words); type: physicochemical; conditions: summary in words
[4] = Aqueous stability in HBSS buffer at 40° C. (HPLC-UV); type: physicochemical; conditions: for 1 month aqueous stability at 40° C. / 3 month aqueous stability at 40° C.: 3% wt/wt or 0.4% wt/wt in HBSS buffer, glass vials, HPLC-UV, in % (unit assumed); for aqueous stability: summary in words
Procedure: An important aspect of formulating a stable topical product. Data in Table 4 below gives 1 month and 3 month stability data at 40° C. Compounds were dissolved at 3% wt/wt or 0.4% wt/wt (if 3% was not possible) in HBSS buffer and stored in glass vials at temperature. Samples were subsequently analyzed by HPLC-UV.

[5] = Skin homogenate study (degradation half-life, LC-MS/MS); type: in vitro ADME, human; conditions: for Half life in skin homogenate: pooled human skin homogenate, 37° C., compound working solution 40 μg/mL mixed with equal volume of homogenate; for degradation: summary in words, given as in vivo
Procedure: To identify which of the dipeptides was readily subject to degradation by proteases and other cell processes in the skin, a number of compounds where tested in a skin homogenate study as described below and the results are listed in table 3.
Dermatomed human skin from multiple skin donors was pooled, homogenized, and adjusted to a tissue concentration of 100 mg tissue per mL of homogenate. The homogenate was used immediately following preparation without any additional freeze/thaw cycles. Working solutions of each compound were prepared in Dulbecco's phosphate-buffered saline (DPBS) at 40 μg/mL. All solutions were pre-heated to 37° C. Equal volumes of skin homogenate and compound working solution were combined, mixed, held at 37° C., and sampled at 0, 15, 30, 60, 120, and 240 minutes. Samples were quenched with acidic acetonitrile, centrifuged, and prepared for LC-MS/MS analysis. Peak areas of each compound at each time-point were determined by LC-MS/MS.
The individual half-life of each dipeptide was determined.
The nature of the experiment should be considered indicative of the relative stability of each of the compounds rather than an absolute correlation to what would happen in vivo. The process of homogenizing the skin is likely to greatly accelerate the degradation. However, it is clear that there is substantial variation in the relative rates for each dipeptide. (See Table 3)

transdermal penetration potential [1]	solubility [3]	1 month aqueous stability at 40° C. [4]	3 month aqueous stability at 40° C. [4]	aqueous stability [4]	Half life in skin homogenate [5]	degradation [5]	Structure (SMILES)	Degree of carbamylation (% relative to HBSS control) [2]	scavenger potential [2]
poor	good	100.6	100.1	good	<5 min	rapid	C[C@H](N)C(=O)N[C@@H](CCC(N)=O)C(=O)O [Ala-Gln] (H-Ala-Gln-OH)	34.8 % relative to HBSS control	good
poor	good	99.1	99.0	good	39 min	rapid	C[C@H](N)C(=O)N[C@@H](CCC(=O)O)C(=O)O [Ala-Glu] (H-Ala-Glu-OH)	20.4 % relative to HBSS control	good
poor	good			good	45 min	rapid	NCC(=O)N[C@@H](CCCN=C(N)N)C(=O)O [Gly-Arg] (H-Gly-Arg-OH)		good
